What was measured:
right Purkinje fiber = assay: Effect on myocardial action potential duration (APD75) in isolated, perfused Purkinje fiber; format: cell-based, mongrel adult dog; settings: Canis lupus familiaris, 20 min, 20 minutes' incubation, field stimulus of 1 Hz, 37°C, read-out: T (%), percent prolongation of myocardial action potential duration (APD75); for activation at 1 µM: Dose 1 x 10^-6 M; for activation at 10 µM: Dose 10 x 10^-6 M; for activation at 100 µM: Dose 100 x 10^-6 M
Experimental: After a mongrel adult dog was anesthetized by the intravenous administration of 30 mg/kg of pentobarbital, the heart was excised therefrom. Then, the right Purkinje fiber was isolated in a nutrient fluid (i.e., Tyrode's solution). The isolated right Purkinje fiber was fixed in a constant-temperature bath (20 ml) at 37°C and perfused with Tyrode's solution. In this state, the myocardial action potential duration (APD75) was measured before and after the administration of each test compound. Then, the percent prolongation of myocardial action potential duration (T) after the administration of each test compound was calculated according to the following equation. T(%) =(B - A)/(A)x 100 [formula] where A: APD75 before administration B: APD75 after administration
APD75 was measured as follows: A field stimulus of 1 Hz was given to the right Purkinje fiber, and any change in action potential was detected by a glass microelectrode (10-20 MΩ) penetrated into a Purkinje fiber and monitored on an oscilloscope via an amplifier. The waveform on the oscilloscope was analyzed by means of a computer, and the duration beween the point of action potential generation adn the point of 75% repolarization was defined as APD75. The test compounds shown in Table 2 were separately added to the perfusing nutrient fluid, and after 20 minutes' incubation was recorded. This test was carried out according to the method of Sato et al. [S. Sato, K. Hashimoto; Arzneimittel Forschung, 34(1), 3a, 376-380(1984)].

[1] = Toxicity test (mortality rate 24 hours after administration); settings: mouse, in vivo, ip; 100 mg/kg (i.p.); twenty-four hours after administration; groups of three mice
Experimental: The test compounds were separately administered to mice (ddy strain, male). The administration of each compound was carried out intraperitoneally (i.p.) in a dose of 100 mg/kg. Twenty-four hours after the administration, the mortality rate of the mice (in groups of three) was examined.

ventricular muscle = assay: Effect on ventricular muscle refractory period (ERP) under ventricular pacing in anesthetized dog; format: in vivo, mongrel adult dog; settings: ventricular pacing at 400 msec
Experimental: According to the method described below, the refractory period was measured before and after the intravenous administration of each test compound, and the percent prolongation of refractory period (ERP) was calculated according to the following equation. ERP prolongation (%) =(W - Y)/(Y)x 100 [formula] where W: Refractory period after administration Y: Refractory period before administration
After a mongrel adult dog was anesthetized by the intravenous (i.v.) administration of 30 mg/kg of pentobarbital, the chest was opened on the right side. Then, a set of silver-silver chloride electrodes spaced by 3 mm was sewn on the right ventricle, and […] electrical stimuli (a duration of 4 msec, and a current intensity equal to twice the threshold) were given at an interval of 400 msec. Thereafter, a small amount of alcohol was injected into a sinus artery in order to destroy the pacemaker activity, and the ventricular refractory period (ERP) was measured under ventricular pacing. Specifically, one train comprised a series of stimuli having an interval of 400 msec, and the interval between trains was usually 400 msec. During measurement of the refractory period, this interval was shortened by decrements of 10 msec, and the interval between trains at which the response to the first stimulus of the train disappeared was regarded as the refractory period. These electrical stimuli were given by programmed stimulation using a heart stimulation apparatus (Diamedical Co., Ltd.; DHM-226-3).

[2] = Stability test in acid aqueous solution (Solution 1 of the Japanese Pharmacopoeia, pH 1.2), remaining compound by HPLC; format: physicochemical; settings: Solution 1 (pH 1.2)
Experimental: In order to confirm the stability of the compounds of the present invention in an acid aqueous solution, stability was tested on the fumarate of 6-[3-[N-[2-(4-methanesulfonylaminophenyl)ethyl]-N-propylamino]propyl]-1,3-dimethyl-2,4(1H,3H)pyrimidinedione (the compound obtained in Example 118; hereinafter referred to as compound A) which is a compound in accordance with the present invention, and 1,3-dimethyl-6-{2-[N-ethyl-3-phenylpropylamino]ethylamino}2,4(1H,3H)-pyrimidinedione (hereinafter referred to as compound B) which is a pyrimidinedione derivative having a substituted amino group at the 6-position of the pyrimidinedione ring as described in European Publication No. 454,498 A2 and was used for purposes of comparison.
Solution 1 (pH 1.2) described in the Japaense Pharmacopoeia was prepared by adding 7.0 ml of hydrochloric acid and water to 2.0 g of sodium chloride so as to give the final volume of 1,000 ml.
Compounds A and B were dissolved in Solution 1 at a concentration of 2 mg/ml and the resulting solutions were stirred at 37°C. Thus, changes with time in the percentages of the remaining compounds A and B were examined by HPLC.

Row | Structure (SMILES) | activation at 1 µM (right Purkinje fiber) | activation at 10 µM (right Purkinje fiber) | activation at 100 µM (right Purkinje fiber) | mortality at 24 h [1] | also measured
1 | CCN(CCCc1cc(=O)n(C)c(=O)n1C)CCOc1ccc([N+](=O)[O-])cc1 [Example 28, 6-[3-[N-ethyl-N-[2-(4-nitrophenoxy)ethyl]amino]propyl]-1,3-dimethyl-2,4(1H,3H)pyrimidinedione] | 14% | 35% | 114% |  | 
2 | CCN(CCCc1cc(=O)n(C)c(=O)n1C)CCOc1cccc(F)c1 [Example 38, 6-[3-[N-ethyl-N-[2-(3-fluorophenoxy)ethyl]amino]propyl]-1,3-dimethyl-2,4(1H,3H)pyrimidinedione] | 6% | 16% | 22% |  | 
3 | CCN(CCCc1cc(=O)n(C)c(=O)n1C)CCOc1ccc(F)cc1 [Example 39, 6-[3-[N-ethyl-N-[2-(4-fluorophenoxy)ethyl]amino]propyl]-1,3-dimethyl-2,4(1H,3H)pyrimidinedione] | 14% | 53% | 49% |  | 
4 | CCCN(CCCc1cc(=O)n(C)c(=O)n1C)CCOc1ccc(C(C)=O)cc1 [Example 47, 6-[3-[N-[2-(4-acetylphenoxy)ethyl]-N-propylamino]propyl]-1,3-dimethyl-2,4(1H,3H)pyrimidinedione] | 13% | 53% | 107% | 0% | 
5 | CC(C)N(CCCc1cc(=O)n(C)c(=O)n1C)CCOc1ccc(-n2ccnc2)cc1 [Example 53, 6-[3-[N-[2-(4-(1H-imidazol-1-yl)phenoxy)ethyl]-N-isopropylamino]propyl]-1,3-dimethyl-2,4(1H,3H)pyrimidinedione] | 8% | 24% | 49% | 0% | 
6 | CC(=O)c1cc(F)ccc1OCCN(C)CCCc1cc(=O)n(C)c(=O)n1C [Example 60, 6-[3-[N-[2-(2-acetyl-4-fluorophenoxy)ethyl]-N-methylamino]propyl]-1,3-dimethyl-2,4(1H,3H)pyrimidinedione] | 13% | 34% | 47% | 0% | 
7 | CCN(CCOc1ccc(F)cc1C(C)=O)CCc1cc(=O)n(C)c(=O)n1C [Example 61, 6-[2-[N-[2-(2-acetyl-4-fluorophenoxy)ethyl]-N-ethylamino]ethyl]-1,3-dimethyl-2,4(1H,3H)pyrimidinedione] | 3% | 18% | 35% |  | 
8 | CCCN(CCCc1cc(=O)n(C)c(=O)n1C)CCc1ccc([N+](=O)[O-])cc1 [Example 76, 1,3-dimethyl-6-[3-[N-[2-(4-nitrophenyl)ethyl]-N-propylamino]propyl]-2,4(1H,3H)pyrimidinedione] | 52% | 114% |  |  | 
9 | CCN(CCCc1cc(=O)n(C)c(=O)n1C)CCc1ccc([N+](=O)[O-])cc1 [Example 84, 6-[3-[N-ethyl-N-[2-(4-nitrophenyl)ethyl]amino]propyl]-1,3-dimethyl-2,4(1H,3H)pyrimidinedione] | 23% | 72% | 96% |  | 
10 | CC(C)N(CCCc1cc(=O)n(C)c(=O)n1C)CCOc1ccc(NS(C)(=O)=O)cc1 [Example 116, 6-[3-[N-[2-(4-methanesulfonylaminophenoxy)ethyl]-N-isopropylamino]propyl]-1,3-dimethyl-2,4(1H,3H)pyrimidinedione] | 9% | 43% | 77% | 0% | ERP (%), percent prolongation of refractory period (ventricular muscle; Dose 0.1 mg/kg i.v.): 6.3%; ERP (%), percent prolongation of refractory period (ventricular muscle; Dose 0.3 mg/kg i.v.): 12.5%; ERP (%), percent prolongation of refractory period (ventricular muscle; Dose 1.0 mg/kg i.v.): 25.0%
11 | CCCN(CCCc1cc(=O)n(C)c(=O)n1C)CCOc1ccc(NS(C)(=O)=O)cc1 [Example 121, 6-[3-[N-n-propyl-N-[2-(4-methanesulfonylaminophenoxy)ethyl]amino]propyl]-1,3-dimethyl-2,4(1H,3H)pyrimidinedione] | 17% | 68% | 103% | 0% | ERP (%), percent prolongation of refractory period (ventricular muscle; Dose 0.1 mg/kg i.v.): 6.2%; ERP (%), percent prolongation of refractory period (ventricular muscle; Dose 0.3 mg/kg i.v.): 20.0%; ERP (%), percent prolongation of refractory period (ventricular muscle; Dose 1.0 mg/kg i.v.): 33.3%
12 | CCN(CCCOc1ccc(NS(C)(=O)=O)cc1)CCCc1cc(=O)n(C)c(=O)n1C [Example 122, 6-[3-[N-ethyl-N-[3-(4-methanesulfonylaminophenoxy)propyl]amino]propyl]-1,3-dimethyl-2,4(1H,3H)-pyrimidinedione] | 10% | 14% | 33% |  | 
13 | CCN(CCOc1ccc(NS(C)(=O)=O)cc1)CCc1cc(=O)n(C)c(=O)n1C [Example 123, 6-[2-[N-ethyl-N-[2-(4-methanesulfonylaminophenoxy)ethyl]amino]ethyl]-1,3-dimethyl-2,4(1H,3H)-pyrimidinedione] | 12% | 41% | 64% |  | 
14 | CCCN(CCOc1ccc(NS(C)(=O)=O)cc1)CCc1cc(=O)n(C)c(=O)n1C [Example 126, 6-[2-[N-n-propyl-N-[2-(4-methanesulfonylaminophenoxy)ethyl]amino]ethyl]-1,3-dimethyl-2,4(1H,3H)pyrimidinedione] | 14% | 46% | 85% |  | ERP (%), percent prolongation of refractory period (ventricular muscle; Dose 0.3 mg/kg i.v.): 5.9%; ERP (%), percent prolongation of refractory period (ventricular muscle; Dose 1.0 mg/kg i.v.): 11.8%
15 | CCN(CCCc1ccc(NS(C)(=O)=O)cc1)CCCc1cc(=O)n(C)c(=O)n1C [Example 138, 6-[3-[N-ethyl-N-[3-(4-methanesulfonylaminophenyl)propyl]amino]propyl]-1,3-dimethyl-2,4(1H,3H)-pyrimidinedione] | 6% | 22% | 49% |  | 
16 | CCN(CCCc1ccccc1)CCNc1cc(=O)n(C)c(=O)n1C [compound B, 1,3-dimethyl-6-{2-[N-ethyl-3-phenylpropylamino]ethylamino}2,4(1H,3H)-pyrimidinedione] |  |  |  |  | Percentage of remaining compound ([2]; 0 hr, 2 mg/ml, stirred at 37°C, HPLC): 100%; remaining at 3 h ([2]; jp solution 1, 3 hr, 2 mg/ml, stirred at 37°C, HPLC, read-out: Percentage of remaining compound): 96%; degraded at 6 h ([2]; jp solution 1, 6 hours, 37°C, read-out: decrease after 6 hours' heating): 7%; remaining at 6 h ([2]; jp solution 1, 6 hr, 2 mg/ml, stirred at 37°C, HPLC, read-out: Percentage of remaining compound): 93%

From patent publication EP0697407B1, “Pyrimidinedione derivatives and antiarrhythmic compositions containing same” (MITSUI TOATSU CHEMICALS, Inc., priority 1994, dated 1996)
